Measurements reported in patent US4345938A, “Herbicidal 2-haloacetanilides” (Monsanto Company, priority 1980, dated 1982).
Like-named read-outs stand apart in the source and are kept apart here.

How the values were obtained:
[1] = test system: Rice; assay: Field transplant rice test, applied 9 DAT, rice injury; type: in vivo; settings: Oryza sativa, 216 h, read-out: Percent Inhibition, Rice; for inhibition at 375 g/ha: 0.375 Kg/Ha; for inhibition at 750 g/ha: 0.75 Kg/Ha; for inhibition at 1500 g/ha: 1.5 Kg/Ha; for inhibition at 3000 g/ha: 3.0 Kg/Ha
Procedure: (§1) In further comparative tests, a preferred compound of this invention (Example 1) was tested in the field with prior art Compounds A-D. These tests were conducted under conditions reflecting herbicide application times generally favorable to all herbicides in the test. The timing of application of herbicides to transplant rice is very important, whether, as in some instances, prior to transplanting the rice; in other instances, at the time of transplanting or else after transplanting. Application times are conventionally referred to as "days before transplant" (DBT) or "days after transplant" ("DAT"). The field test data in Table IV was obtained from a test in which the herbicides were applied at the time of transplant, i.e., "0 DAT", with observations being made weekly up to six weeks after transplant ("WAT") beginning at two weeks after transplant; for illustrative and representative purposes, only the early, middle and late period observations, i.e., 2 WAT, 4 WAT and 6 WAT, are shown in Table IV. The data in Table IV is for rates of application common to all herbicides in the test, i.e., from 3.0 kg/ha (2.67 lb/A) down to 0.375 kg/ha (0.34 lb/A). All herbicides were applied at their actual or expected use rates, i.e., as granules containing 2.5% by weight herbicide for the compound of Example 1, Compounds B, C and D and 5.0% by weight for Compound A.
(§2) In Table V are presented field data showing the relative performance of the compound of Example 1 and Compounds A-D applied 9 DAT, with observations being made weekly from 3 WAT to 7 WAT; again, for illustrative and representative purposes, only the early, middle and late period observations are reported in Table V, the herbicide rates and concentrations of active ingredients the same as is shown in Table IV.

[2] = test system: Echinochloa crus-galli; assay: Field transplant rice test, applied 9 DAT, EC; type: in vivo; settings: for inhibition at 375 g/ha / inhibition at 750 g/ha / inhibition at 1500 g/ha / inhibition at 3000 g/ha: Echinochloa crus-galli, 216 h, read-out: Percent Inhibition, EC; for inhibition at 375 g/ha: 0.375 Kg/Ha; for inhibition at 750 g/ha: 0.75 Kg/Ha; for inhibition at 1500 g/ha: 1.5 Kg/Ha; for inhibition at 3000 g/ha: 3.0 Kg/Ha
Source text: (§3) In the discussion of data below, occasional reference is made to herbicide application rates symbolized as "GR15 " and "GR85 "; these rates are given in kilograms per hectare (kg/ha) which are convertible into pounds per acre (lbs/A) by dividing the kg/ha rate by 1.12.
(§4) A further guide to the effectiveness of a chemical as a selective herbicide is the "selectivity factor" ("SF") for a herbicide in given crops and weeds. The selectivity factor is a measure of the relative degree of crop safety and weed injury and is expressed in terms of the GR15 /GR85 ratio, i.e., the GR15 rate for the crop divided by the GR85 rate for the weed, both rates in kg/ha (lb/A.)
(§5) The test data in Table III for all compounds was obtained under identical test conditions. The weeds used in the tests herein have the following abbreviations in the tables: Echinochloa crus-galli (EC), Monochloria vaginalis (MV), Cyperus Serotinus (CS), Eleocharis Kuroguwai (EK) and Sagittaria trifolia (ST).
as §1, §2

[3] = test system: Monochoria vaginalis; assay: Field transplant rice test, applied 9 DAT, MV; type: in vivo; settings: for inhibition at 375 g/ha / inhibition at 750 g/ha / inhibition at 1500 g/ha / inhibition at 3000 g/ha: Pontederia vaginalis, 216 h, read-out: Percent Inhibition, MV; for inhibition at 375 g/ha: 0.375 Kg/Ha; for inhibition at 750 g/ha: 0.75 Kg/Ha; for inhibition at 1500 g/ha: 1.5 Kg/Ha; for inhibition at 3000 g/ha: 3.0 Kg/Ha
Source text: as §3, §4, §5, §1, §2

[4] = test system: Sagittaria trifolia; assay: Field transplant rice test, applied 9 DAT, ST; type: in vivo; settings: 216 h, read-out: Percent Inhibition, ST; for inhibition at 375 g/ha: 0.375 Kg/Ha; for inhibition at 750 g/ha: 0.75 Kg/Ha; for inhibition at 1500 g/ha: 1.5 Kg/Ha; for inhibition at 3000 g/ha: 3.0 Kg/Ha
Procedure: as §5, §1, §2

[5] = test system: Rice; assay: Greenhouse transplant rice test, rice injury; type: in vivo, Rice (Bluebelle); settings: Oryza sativa, about 3 WAT, read-out: Percent Inhibition, Rice
Source text: (§6) The test procedure used in this greenhouse test is as follows: Ray silt loam top soil containing about 0.05% by weight of krillium and sifted through a […] screen is fumigated about 5-10 days prior to use. Pots are then filled with said Ray silt loam soil to a level to allow for a 1 in. (2.54 cm) flooding depth. Rice plants (Bluebelle) of 2 to 3 weeks age are transplanted to the pots and bulbs or seeds of the test weeds also planted in the pots. The pots are then flooded and the test chemical applied to the surface of the flood water. The flood water is reduced to allow for germination of the Echinochloa crus-galli (barnyardgrass) seed and subsequently reflooded and maintained in that condition. Observations of percent inhibition using a scale of 0-100% are made about 3 weeks after transplant (WAT).
as §5

[6] = test system: Echinochloa crus-galli; assay: Greenhouse transplant rice test, EC; type: in vivo; settings: about 3 WAT, read-out: Percent Inhibition, EC
Source text: as §6, §5

[7] = test system: Cyperus serotinus; assay: Greenhouse transplant rice test, CS; type: in vivo; settings: about 3 WAT, read-out: Percent Inhibition, CS
Source text: as §6, §5

Question: With `CCCOCCN(C(=O)CCl)c1c(CC)cccc1CC` [Compound D, 2',6'-diethyl-N-(n-propoxyethyl)-2-chloroacetanilide] as the compound, how does the inhibition at 375 g/ha ([1]; 3 WAT) read?
Answer: 8%

Question: What about the inhibition at 375 g/ha ([1]; 5 WAT) of the same compound?
Answer: 7%

Question: And the inhibition at 375 g/ha ([1]; 7 WAT)?
Answer: 7%

Question: And the inhibition at 750 g/ha ([1]; 3 WAT)?
Answer: 10%

Question: And the inhibition at 750 g/ha ([1]; 5 WAT)?
Answer: 5%

Question: What about the inhibition at 750 g/ha ([1]; 7 WAT) of the same compound?
Answer: 2%

Question: And the inhibition at 1500 g/ha ([1]; 3 WAT)?
Answer: 10%

Question: What about the inhibition at 1500 g/ha ([1]; 5 WAT) of the same compound?
Answer: 5%

Question: And the inhibition at 1500 g/ha ([1]; 7 WAT)?
Answer: 7%

Question: What about the inhibition at 3000 g/ha ([1]; 3 WAT) of the same compound?
Answer: 15%

Question: And the inhibition at 3000 g/ha ([1]; 5 WAT)?
Answer: 5%

Question: What about the inhibition at 3000 g/ha ([1]; 7 WAT) of the same compound?
Answer: 8%

Question: What about the inhibition at 375 g/ha ([2]; 3 WAT) of the same compound?
Answer: 62%

Question: And the inhibition at 375 g/ha ([2]; 5 WAT)?
Answer: 48%

Question: What about the inhibition at 375 g/ha ([2]; 7 WAT) of the same compound?
Answer: 57%

Question: What about the inhibition at 750 g/ha ([2]; 3 WAT) of the same compound?
Answer: 88%

Question: And the inhibition at 750 g/ha ([2]; 5 WAT)?
Answer: 92%

Question: And the inhibition at 750 g/ha ([2]; 7 WAT)?
Answer: 88%

Question: What about the inhibition at 1500 g/ha ([2]; 3 WAT) of the same compound?
Answer: 78%

Question: And the inhibition at 1500 g/ha ([2]; 5 WAT)?
Answer: 75%

Question: And the inhibition at 1500 g/ha ([2]; 7 WAT)?
Answer: 78%

Question: What about the inhibition at 3000 g/ha ([2]; 3 WAT) of the same compound?
Answer: 100%

Question: And the inhibition at 3000 g/ha ([2]; 5 WAT)?
Answer: 100%

Question: And the inhibition at 3000 g/ha ([2]; 7 WAT)?
Answer: 100%

Question: And the “selectivity factor (GR15/GR85), EC in transplant rice” value ([2]; between 3 WAT and 7 WAT)?
Answer: 1

Question: What about the inhibition at 375 g/ha ([3]; 3 WAT) of the same compound?
Answer: 95%

Question: What about the inhibition at 375 g/ha ([3]; 5 WAT) of the same compound?
Answer: 98%

Question: What about the inhibition at 375 g/ha ([3]; 7 WAT) of the same compound?
Answer: 95%

Question: And the inhibition at 750 g/ha ([3]; 3 WAT)?
Answer: 100%

Question: And the inhibition at 750 g/ha ([3]; 5 WAT)?
Answer: 87%

Question: And the inhibition at 750 g/ha ([3]; 7 WAT)?
Answer: 100%

Question: And the inhibition at 1500 g/ha ([3]; 3 WAT)?
Answer: 100%

Question: What about the inhibition at 1500 g/ha ([3]; 5 WAT) of the same compound?
Answer: 100%

Question: And the inhibition at 1500 g/ha ([3]; 7 WAT)?
Answer: 100%

Question: And the inhibition at 3000 g/ha ([3]; 3 WAT)?
Answer: 100%

Question: And the inhibition at 3000 g/ha ([3]; 5 WAT)?
Answer: 100%

Question: And the inhibition at 3000 g/ha ([3]; 7 WAT)?
Answer: 100%

Question: What about the “selectivity factor (GR15/GR85), MV in transplant rice” value ([3]; between 3 WAT and 7 WAT) of the same compound?
Answer: 8

Question: What about the inhibition at 375 g/ha ([4]; 3 WAT) of the same compound?
Answer: 45%

Question: What about the inhibition at 375 g/ha ([4]; 5 WAT) of the same compound?
Answer: 12%

Question: And the inhibition at 375 g/ha ([4]; 7 WAT)?
Answer: 7%

Question: And the inhibition at 750 g/ha ([4]; 3 WAT)?
Answer: 42%

Question: And the inhibition at 750 g/ha ([4]; 5 WAT)?
Answer: 25%

Question: And the inhibition at 750 g/ha ([4]; 7 WAT)?
Answer: 18%

Question: And the inhibition at 1500 g/ha ([4]; 3 WAT)?
Answer: 43%

Question: What about the inhibition at 1500 g/ha ([4]; 5 WAT) of the same compound?
Answer: 25%

Question: And the inhibition at 1500 g/ha ([4]; 7 WAT)?
Answer: 22%

Question: What about the inhibition at 3000 g/ha ([4]; 3 WAT) of the same compound?
Answer: 73%

Question: And the inhibition at 3000 g/ha ([4]; 5 WAT)?
Answer: 60%

Question: And the inhibition at 3000 g/ha ([4]; 7 WAT)?
Answer: 52%

Question: How did the inhibition at 280 g/ha ([5]; 0.28 Kg/Ha) turn out when `CCCCOc1cccc(CC)c1N(CC)C(=O)CCl` [Example 2, N-ethyl-2'-n-butoxy-6'-ethyl-2-chloroacetanilide] was run?
Answer: 0%

Question: What about the inhibition at 560 g/ha ([5]; 0.56 Kg/Ha) of the same compound?
Answer: 10%

Question: What about the inhibition at 1120 g/ha ([5]; 1.12 Kg/Ha) of the same compound?
Answer: 15%

Question: And the inhibition at 2240 g/ha ([5]; 2.24 Kg/Ha)?
Answer: 25%

Question: What about the inhibition at 280 g/ha ([6]; 0.28 Kg/Ha) of the same compound?
Answer: 100%

Question: What about the inhibition at 560 g/ha ([6]; 0.56 Kg/Ha) of the same compound?
Answer: 100%

Question: What about the inhibition at 1120 g/ha ([6]; 1.12 Kg/Ha) of the same compound?
Answer: 100%

Question: What about the inhibition at 2240 g/ha ([6]; 2.24 Kg/Ha) of the same compound?
Answer: 100%

Question: And the inhibition at 280 g/ha ([7]; 0.28 Kg/Ha)?
Answer: 100%

Question: What about the inhibition at 560 g/ha ([7]; 0.56 Kg/Ha) of the same compound?
Answer: 100%

Question: And the inhibition at 1120 g/ha ([7]; 1.12 Kg/Ha)?
Answer: 100%

Question: What about the inhibition at 2240 g/ha ([7]; 2.24 Kg/Ha) of the same compound?
Answer: 100%
